For data set [1], the target named is T1, Solute carrier family 22 member 12 (Homo sapiens, UniProt Q96S37).
T1 sequence (Q96S37 whole entry): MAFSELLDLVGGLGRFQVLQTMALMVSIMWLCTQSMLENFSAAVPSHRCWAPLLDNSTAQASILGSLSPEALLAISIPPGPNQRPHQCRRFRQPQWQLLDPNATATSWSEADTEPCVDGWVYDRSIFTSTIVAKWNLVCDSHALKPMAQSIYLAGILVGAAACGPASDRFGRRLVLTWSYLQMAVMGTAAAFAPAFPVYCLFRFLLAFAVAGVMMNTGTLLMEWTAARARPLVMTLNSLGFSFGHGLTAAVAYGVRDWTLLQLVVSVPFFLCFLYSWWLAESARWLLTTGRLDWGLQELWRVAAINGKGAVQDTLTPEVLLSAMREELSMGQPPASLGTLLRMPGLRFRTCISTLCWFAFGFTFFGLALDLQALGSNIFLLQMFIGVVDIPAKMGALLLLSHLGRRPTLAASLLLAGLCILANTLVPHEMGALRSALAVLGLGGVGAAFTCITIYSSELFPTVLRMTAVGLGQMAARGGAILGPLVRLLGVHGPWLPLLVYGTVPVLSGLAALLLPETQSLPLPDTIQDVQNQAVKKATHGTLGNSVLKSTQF
The data set is described as follows: Inhibition of human URAT1 expressed in HEK293T cells using 6-carboxylic fluorescein substrate by fluorescence assay. It is filed as cell-based.

Data set [2] addresses Xanthine dehydrogenase/oxidase (Homo sapiens, UniProt P47989). The data set is described as follows: Inhibition of XOR (unknown origin) using xanthine as substrate measured for 10 mins by spectrophotometry.
For data set [3], the target named is T1, Solute carrier family 22 member 12. The data set is described as follows: Inhibition of human URAT1 expressed in HEK293T cells using 6-carboxylic fluorescein substrate at 1000 uM by fluorescence assay. Format: cell-based.
A further data set concerns the target T2, URAT1 (SLC22A12) (Homo sapiens, UniProt Q96S37).
T2 sequence (Q96S37 whole entry): T1 sequence (Q96S37 whole entry)
The data set is described as follows: Inhibition of human URAT1 expressed in HEK293T cells using 6-carboxylic fluorescein substrate at 100 uM by fluorescence assay relative to control. The conditions noted are these: HEK293T cells expressing human URAT1, probe 6-carboxylic fluorescein. Format: cell-based.

The test system of data set [4] is Mus musculus. The data set is described as follows: Hypouricemic effect in potassium oxonate/hypoxanthine-induced acute hyperuricemia ICR mouse model assessed as decrease in serum uric acid level at 5 mg/kg, gavage measured after 3 to 9 hrs of drug administration. Format: functional, organism-based. The conditions noted are these: time 3-9 hrs.
In data set [5] the test system is Mus musculus. Put plainly: Hypouricemic effect in potassium oxonate/hypoxanthine-induced acute hyperuricemia ICR mouse model assessed as decrease in serum uric acid level measured after 1 hr drug administration. Format: functional, organism-based.

pIC50: −log10 of the molar value. Active and inactive are the calls of the source. The calls are words filed in the database; no cut-off is given here.

Sequence of Xanthine dehydrogenase/oxidase (P47989 whole entry): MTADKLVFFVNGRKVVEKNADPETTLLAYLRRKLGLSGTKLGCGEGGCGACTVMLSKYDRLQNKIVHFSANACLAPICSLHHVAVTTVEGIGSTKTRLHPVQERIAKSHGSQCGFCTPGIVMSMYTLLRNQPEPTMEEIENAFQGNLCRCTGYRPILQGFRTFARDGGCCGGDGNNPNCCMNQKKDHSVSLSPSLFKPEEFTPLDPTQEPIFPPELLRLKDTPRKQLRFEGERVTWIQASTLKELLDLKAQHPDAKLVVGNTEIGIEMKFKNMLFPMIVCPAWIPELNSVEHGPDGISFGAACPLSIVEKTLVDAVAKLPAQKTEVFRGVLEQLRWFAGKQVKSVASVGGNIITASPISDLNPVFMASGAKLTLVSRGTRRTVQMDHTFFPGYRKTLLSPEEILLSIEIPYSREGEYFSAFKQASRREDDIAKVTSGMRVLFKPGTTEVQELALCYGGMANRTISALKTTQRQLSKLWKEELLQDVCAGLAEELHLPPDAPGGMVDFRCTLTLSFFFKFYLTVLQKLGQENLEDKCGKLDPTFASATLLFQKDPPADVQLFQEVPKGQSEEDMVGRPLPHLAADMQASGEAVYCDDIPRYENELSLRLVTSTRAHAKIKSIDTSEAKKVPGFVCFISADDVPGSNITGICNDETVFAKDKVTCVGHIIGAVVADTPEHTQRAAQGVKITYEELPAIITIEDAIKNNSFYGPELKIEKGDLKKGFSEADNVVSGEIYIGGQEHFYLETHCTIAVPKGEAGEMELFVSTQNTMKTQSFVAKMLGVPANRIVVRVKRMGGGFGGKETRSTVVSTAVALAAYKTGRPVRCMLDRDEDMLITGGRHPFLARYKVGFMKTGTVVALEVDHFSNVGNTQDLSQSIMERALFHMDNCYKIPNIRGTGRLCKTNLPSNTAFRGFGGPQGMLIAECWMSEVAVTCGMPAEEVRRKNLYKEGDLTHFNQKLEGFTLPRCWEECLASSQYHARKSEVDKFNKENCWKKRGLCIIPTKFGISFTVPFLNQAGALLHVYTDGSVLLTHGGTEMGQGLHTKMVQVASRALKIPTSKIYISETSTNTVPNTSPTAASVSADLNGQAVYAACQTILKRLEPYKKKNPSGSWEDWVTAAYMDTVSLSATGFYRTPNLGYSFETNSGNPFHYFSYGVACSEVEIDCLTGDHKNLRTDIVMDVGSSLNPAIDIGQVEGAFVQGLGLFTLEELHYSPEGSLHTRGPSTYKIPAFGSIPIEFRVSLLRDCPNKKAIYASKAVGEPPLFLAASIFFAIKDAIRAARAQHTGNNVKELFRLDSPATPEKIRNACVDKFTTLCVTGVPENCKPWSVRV

Turning to `O=C(O)c1ccc(-c2cncc(Oc3ccc(F)cc3)c2)cc1O`, the results for the pIC50 in data set [1] and in data set [2] were 3.87 and 7.40, respectively.
Take `Cc1cccc(Nc2cncc(-c3ccc(C(=O)O)c(O)c3)c2)c1`: the results for the pIC50 in data set [1] and in data set [2] were 4.24 and 7.64, respectively.
`O=C(O)c1ccc(-c2cncc(Nc3ccc(F)cc3)c2)cc1O`: the pIC50 in data set [1] was 4.04; in data set [2] it was 7.82.
The corresponding values for `O=C(O)c1ccc(-c2cncc(Oc3cccc(Cl)c3)c2)cc1O` are 4.25 and 7.35.
For `CCc1ccc(Nc2cncc(-c3ccc(C(=O)O)c(O)c3)c2)cc1`, the negative-log IC50 (pIC50) in data set [1] is 4.50; in data set [2], 7.59.
The corresponding values for `COc1ccc(Nc2cncc(-c3ccc(C(=O)O)c(O)c3)c2)cc1` are 4.23 and 7.80.
The corresponding values for `Cc1ccc(Nc2cncc(-c3ccc(C(=O)O)c(O)c3)c2)cc1` are 4.36 and 8.40.
Take `O=C(O)c1ccc(-c2cncc(Nc3ccc(F)c(Cl)c3)c2)cc1O`: the negative logarithm of the IC50 (pIC50) in data set [1] is 4.43; in data set [2], 7.80.
Take `CC(C)NC(=O)c1cncc(-c2ccc(F)c(C(=O)O)c2)c1`: the values for the negative-log IC50 (pIC50) in data set [1] and in data set [2] were under 3.00 and under 4.00, respectively.
On to `Cc1ccc(Oc2cncc(-c3ccc(C(=O)O)c(O)c3)c2)cc1`, for which the values for the negative-log IC50 (pIC50) in data set [1] and in data set [2] were 3.97 and 7.46, respectively.
For `CC(C)(C)c1ccc(Nc2cncc(-c3ccc(C(=O)O)c(O)c3)c2)cc1`, the pIC50 in data set [1] is 4.15; in data set [2], 7.39.
Turning to `O=C(O)c1ccc(-c2cncc(Nc3ccc(Cl)c(Cl)c3)c2)cc1O`, the pIC50 in data set [1] was 4.09; in data set [2], 7.72.
The corresponding values for `O=C(O)c1ccc(-c2cncc(Nc3ccccc3)c2)cc1O` are 4.48 and 7.59.
The corresponding values for `CC(C)NC(=O)c1cncc(-c2ccc(O)c(C(=O)O)c2)c1` are 3.66 and 4.10.
As for `CC(C)NC(=O)c1cncc(-c2ccc(C#N)cc2)c1`, the “inhibition (INH)” value in data set [3] is given as “Not Active”. Also, the pIC50 in data set [2] is 4.12.
In the case of `Cc1ccc(Nc2cncc(-c3ccc(C(=O)O)c(O)c3)c2)cc1C`, the negative-log IC50 (pIC50) in data set [1] is 4.27; in data set [2] it was 7.68.
The corresponding values for `O=C(O)c1ccc(-c2cncc(Nc3cccc(Cl)c3)c2)cc1O` are 4.89 and 8.22.
Regarding `CC(C)NC(=O)c1cncc(-c2ccc(C(=O)O)c(O)c2)c1`, the figures for the pIC50 in data set [1] and in data set [2] were 3.26 and 7.43, respectively.
As to `CC(=O)c1ccc(-c2cncc(C(=O)NC(C)C)c2)cc1`, 100 µM produced 15.6% inhibition on URAT1 (SLC22A12). The same molecule showed a pIC50 in data set [2] of 5.19.
Consider `Cc1ccc(Nc2cncc(-c3ccc(C(=O)O)c(O)c3)c2)cc1Cl`, for which the values for the pIC50 in data set [1] and in data set [2] were 4.29 and 7.37, respectively.
Take `CC(C)(C)c1ccc(Oc2cncc(-c3ccc(C(=O)O)c(O)c3)c2)cc1`: in the data set with Mus musculus [4], the result was Active. Also, the negative logarithm of the IC50 (pIC50) is 3.90 in data set [1] and 6.92 in data set [2]. The result in the data set on Mus musculus [5] was inactive.
`O=C(O)c1ccc(-c2cncc(Oc3ccc(Cl)cc3)c2)cc1O`: the pIC50 in data set [1] was 4.19; in data set [2] it was 7.42.
In the case of `Cc1nc(-c2ccc(OCC(C)C)c(C#N)c2)sc1C(=O)O` [FEBUXOSTAT], the negative-log IC50 (pIC50) in data set [2] was 8.10.
For `CC(C)NC(=O)c1cncc(-c2ccc(C(=O)O)cc2)c1`, the “inhibition (INH)” value in data set [3] is “Not Active”. Moreover, the negative logarithm of the IC50 (pIC50) in data set [2] is 6.23.
For `CC(C)NC(=O)c1cncc(-c2cccc(C(=O)O)c2)c1`, the “inhibition (INH)” value in data set [3] is listed as “Not Active”. Also, the negative-log IC50 (pIC50) in data set [2] was under 4.00.
Consider `Cc1ccc(Nc2cncc(-c3ccc(C(=O)O)c(O)c3)c2)cc1F`, for which the pIC50 was 4.51 in data set [1] and 7.52 in data set [2].
`Cc1nc(C)c(-c2csc(Nc3ccc(O)c(C(=O)O)c3)n2)s1` showed an inhibition at 100 µM against URAT1 (SLC22A12) of 35.5%. This molecule showed a negative logarithm of the IC50 (pIC50) in data set [2] of 5.40.
Turning to `O=C(O)c1ccc(-c2cncc(Nc3ccc(Cl)cc3)c2)cc1O`, the pIC50 in data set [1] was 4.24; in data set [2] it was 7.89.
Take `O=C(O)c1ccc(-c2cncc(Oc3ccccc3)c2)cc1O`: the outcome in the data set on Mus musculus [4] was Active. Moreover, the figures for the negative logarithm of the IC50 (pIC50) in data set [1] and in data set [2] were 4.06 and 7.44, respectively. Moreover, the outcome with Mus musculus [5] was inactive.
Turning to `CC(C)NC(=O)c1cncc(-c2ccc(Cl)c(C(=O)O)c2)c1`, the pIC50 in data set [1] is under 3.00; in data set [2], under 4.00.
In the case of `Cc1cccc(Oc2cncc(-c3ccc(C(=O)O)c(O)c3)c2)c1`, the figures for the pIC50 in data set [1] and in data set [2] were 4.06 and 7.59, respectively.
For `CCc1oc2ccccc2c1C(=O)c1cc(Br)c(O)c(Br)c1`, in the data set on Mus musculus [4], the outcome was Active.

Source of the values: ChEMBL document CHEMBL5512661, “Design, synthesis, and biological evaluation of 3-phenyl substituted pyridine derivatives as potential dual inhibitors of XOR and URAT1” (Eur J Med Chem, 2024).
